Reference: US12371454B2, “Cyclic peptide compound having Kras inhibitory action” (priority 2019, dated 2025)
pIC50: −log10 of the molar value. Starred links: 1 amine or outer side, 2 acyl side, 3 side chain; linkers in the order of their positions; H or OH if unused. Positions of bridges follow the written chain, without caps; N, C: chain ends. Non-standard residues stand in square brackets, D forms with d. Residues, ends and D or L forms follow the SMILES beside them. *: point of attachment. hPhe(3-Cl-4-CF3) = N[C@@H](CCc1ccc(C(F)(F)F)c(Cl)c1)C(=O)O; NMePhe(4-CF3) = CN[C@@H](Cc1ccc(C(F)(F)F)cc1)C(=O)O; hPhe(4-CF3) = N[C@@H](CCc1ccc(C(F)(F)F)cc1)C(=O)O; 3Oxa8azabicyclo(3.2.1)octane = C1CC2COCC1N2*; NMePhe(4-Br) = CN[C@@H](Cc1ccc(Br)cc1)C(=O)O; NMePhe(4-Me) = CN[C@@H](Cc1ccc(C)cc1)C(=O)O; NMedβ3hAla = C[C@H](CC(=O)[*:2])N(C)[*:1]; Ala(cPent) = N[C@@H](CC1CCCC1)C(=O)O; NMeGly(cBu) = CN[C@H](C(=O)O)C1CCC1; NMeY = CN[C@@H](Cc1ccc(O)cc1)C(=O)O; NMeCha = CN[C@@H](CC1CCCCC1)C(=O)O; NMeChg = CN[C@H](C(=O)O)C1CCCCC1; NMeI = CC[C@H](C)[C@H](NC)C(=O)O; Gly(cBu) = N[C@H](C(=O)O)C1CCC1; NMeE = CN[C@@H](CCC(=O)O)C(=O)O; NMeD = CN[C@@H](CC(=O)O)C(=O)O; NMeL = CN[C@@H](CC(C)C)C(=O)O; NMehSer = CN[C@@H](CCO)C(=O)O; NMeV = CN[C@H](C(=O)O)C(C)C; d(β3hA) = C[C@@H](N)CC(=O)O; NMeAbu = CC[C@H](NC)C(=O)O; NMeS = CN[C@@H](CO)C(=O)O; Morpholide = C1CN(*)CCO1; NMeA = CN[C@@H](C)C(=O)O; Piperidide = C1CCN(*)CC1; Ac5c = NC1(C(=O)O)CCCC1; Aze = O=C(O)[C@@H]1CCN1; CF3 = FC(F)(F)*; Sar = CNCC(=O)O; Propyl = CCC*

How the values were obtained:
[1] = biological target: T1, Kras and SOS1 (biotin-tagged human Kras loaded with GDP, His-tagged human SOS1) (Homo sapiens, UniProt P01116, G12D); assay: Protein-protein interaction inhibition between Kras and SOS1 (KrasGl2D-SOS PPI) using AlphaScreen; type: binding; conditions: AlphaScreen; biotin-tagged human Kras loaded with GDP, His-tagged human SOS1; read-out: KRAS G12D-SOS PPI IC50
T1 construct: made in house; host or cells: E. coli (stated for Kras only)
T1 sequence (P01116 1-188 isoform P01116-2 G12D): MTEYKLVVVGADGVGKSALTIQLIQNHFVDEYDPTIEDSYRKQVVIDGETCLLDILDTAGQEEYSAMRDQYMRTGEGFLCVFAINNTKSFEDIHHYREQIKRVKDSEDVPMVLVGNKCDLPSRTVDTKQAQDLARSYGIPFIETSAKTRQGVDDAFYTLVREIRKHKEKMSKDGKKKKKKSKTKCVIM
Summary of the method: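 Read-out is acceptor-bead light at 520-620 nm, arising when 680 nm-irradiated nickel donor beads pass singlet oxygen to streptavidin acceptors. The bead pair links His-tagged SOS1 with biotin-tagged, GDP-bound Kras from E. coli.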

[2] = tested on: Human pancreatic cancer cell line AsPC-1; assay: Measurement of AsPC-1 cell growth inhibition (AsPC-1 CGI); type: cell-based; conditions: 96 h
Summary of the method: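 AsPC-1 cells in 15% FBS RPMI-1640 were exposed to test compound for 96 hours at 37° C, with CellTiter-Glo as endpoint.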

SMILES	pIC50 [1]	pIC50 [2]
CC[C@H](C)[C@@H]1NC(=O)[C@H](CC)N(C)C(=O)C[C@@H](C(=O)N2CCOCC2)N(C)C(=O)[C@H](C2CCCCC2)N(C)C(=O)C2(CCCC2)NC(=O)[C@@H]2CCCN2C(=O)[C@H](CCc2ccc(C(F)(F)F)c(Cl)c2)NC(=O)CN(C)C(=O)[C@H](Cc2ccc(C)cc2)N(C)C(=O)CN(C)C(=O)CN(C)C1=O [Compound 1904] ([NMeAbu]I[Sar][Sar][NMePhe(4-Me)][Sar][hPhe(3-Cl-4-CF3)]P[Ac5c][NMeChg][NMeD]-Morpholide; lactam N-11)	9.24	7.30 to 7.70
CC[C@H](C)[C@@H]1NC(=O)[C@H](CC(C)C)N(C)C(=O)C[C@@H](C(=O)N2CCCCC2)N(C)C(=O)[C@H](C(C)C)N(C)C(=O)C2(CCCC2)NC(=O)[C@@H]2CCCN2C(=O)[C@H](CCc2ccc(C(F)(F)F)c(Cl)c2)NC(=O)CN(C)C(=O)[C@H](Cc2ccc(C(F)(F)F)cc2)N(C)C(=O)CN(C)C(=O)CN(C)C1=O [Compound 1629] ([NMeL]I[Sar][Sar][NMePhe(4-CF3)][Sar][hPhe(3-Cl-4-CF3)]P[Ac5c][NMeV][NMeD]-Piperidide; lactam N-11)	8.60	7.00 to 7.30
CC[C@H](C)[C@@H]1NC(=O)[C@H](CCOC)N(C)C(=O)C[C@@H](C(=O)N2CCCCC2)N(C)C(=O)[C@H](C2CCCCC2)N(C)C(=O)C2(CCCC2)NC(=O)[C@@H]2CCCN2C(=O)[C@H](CCc2ccc(C(F)(F)F)c(Cl)c2)NC(=O)CN(C)C(=O)[C@H](CC2CCCCC2)N(C)C(=O)CN(C)C(=O)CN(C)C1=O [Compound 650] ([NMehSer](Me)I[Sar][Sar][NMeCha][Sar][hPhe(3-Cl-4-CF3)]P[Ac5c][NMeChg][NMeD]-Piperidide; lactam N-11)	9.22	7.00 to 7.30
CC[C@H](C)[C@@H]1NC(=O)[C@H](CC(C)C)N(C)C(=O)C[C@@H](C(=O)N(C)C)N(C)C(=O)[C@H]([C@@H](C)CC)N(C)C(=O)C2(CCCC2)NC(=O)[C@H](CCC(=O)NC)N(C)C(=O)[C@H](CCc2ccc(C(F)(F)F)c(Cl)c2)NC(=O)CN(C)C(=O)[C@H](Cc2ccc(C)cc2)N(C)C(=O)[C@@H]2CCN2C(=O)[C@H](C)N(C)C1=O [Compound 1911] ([NMeL]I[NMeA][Aze][NMePhe(4-Me)][Sar][hPhe(3-Cl-4-CF3)][NMeE](NHMe)[Ac5c][NMeI][NMeD]-NMe2; lactam N-11)	9.17	7.00 to 7.30
CC[C@H](C)[C@@H]1NC(=O)[C@H](CC(C)C)N(C)C(=O)C[C@@H](C(=O)N2CCCCC2)N(C)C(=O)[C@H](C(C)C)N(C)C(=O)C2(CCCC2)NC(=O)[C@@H]2CCCN2C(=O)[C@H](CCc2ccc(C(F)(F)F)cc2)NC(=O)CN(C)C(=O)[C@H](CC2CCCCC2)N(C)C(=O)CN(C)C(=O)CN(C)C1=O [Compound 108] ([NMeL]I[Sar][Sar][NMeCha][Sar][hPhe(4-CF3)]P[Ac5c][NMeV][NMeD]-Piperidide; lactam N-11)	8.30	6.30 to 7.00
CC(C)C[C@H]1C(=O)N[C@@H](C2CCC2)C(=O)N(C)CC(=O)N(C)CC(=O)N(C)[C@@H](CC2CCCCC2)C(=O)N(C)CC(=O)N[C@@H](CCc2ccc(C(F)(F)F)c(Cl)c2)C(=O)N2CCC[C@H]2C(=O)NC2(CCCC2)C(=O)N(C)[C@@H](C2CCCCC2)C(=O)N(C)[C@H](C(=O)N2C3CCC2COC3)CC(=O)N1C [Compound 1879] ([NMeL][Gly(cBu)][Sar][Sar][NMeCha][Sar][hPhe(3-Cl-4-CF3)]P[Ac5c][NMeChg][NMeD]-{3Oxa8azabicyclo(3.2.1)octane}; lactam N-11)	9.18	7.00 to 7.30
CCCOC[C@H]1C(=O)N(C)CC(=O)N[C@@H](CCc2ccc(C(F)(F)F)c(Cl)c2)C(=O)N2CCC[C@H]2C(=O)NC2(CCCC2)C(=O)N(C)[C@@H](C2CCCCC2)C(=O)N(C)[C@H](C(=O)N2C3CCC2COC3)CC(=O)N(C)[C@@H](C2CCC2)C(=O)N[C@@H]([C@@H](C)CC)C(=O)N(C)CC(=O)N(C)CC(=O)N1C [Compound 140] ([NMeGly(cBu)]I[Sar][Sar][NMeS](Propyl)[Sar][hPhe(3-Cl-4-CF3)]P[Ac5c][NMeChg][NMeD]-{3Oxa8azabicyclo(3.2.1)octane}; lactam N-11)	9.09	6.30 to 7.00
CC[C@H](C)[C@@H]1NC(=O)[C@H](CC(C)C)N(C)C(=O)C[C@@H](C)NC(=O)[C@H](C(C)C)N(C)C(=O)C2(CCCC2)NC(=O)[C@@H]2CCCN2C(=O)[C@H](CCc2ccc(C(F)(F)F)c(Cl)c2)NC(=O)CN(C)C(=O)[C@H](Cc2ccc(OC(F)(F)F)cc2)N(C)C(=O)CN(C)C(=O)CN(C)C1=O [Compound 1565] (cyclo([Ac5c][NMeV][d(β3hA)][NMeL]I[Sar][Sar][NMeY](CF3)[Sar][hPhe(3-Cl-4-CF3)]P))	7.85	6.30 to 7.00
CC(C)C[C@H]1C(=O)N[C@@H](CC2CCCC2)C(=O)N(C)CC(=O)N(C)CC(=O)N(C)[C@@H](CC2CCCCC2)C(=O)N(C)CC(=O)N[C@@H](CCc2ccc(C(F)(F)F)c(Cl)c2)C(=O)N2CCC[C@H]2C(=O)NC2(CCCC2)C(=O)N(C)[C@@H](C2CCCCC2)C(=O)N(C)[C@H](C(=O)N2CCCCC2)CC(=O)N1C [Compound 1838] ([NMeL][Ala(cPent)][Sar][Sar][NMeCha][Sar][hPhe(3-Cl-4-CF3)]P[Ac5c][NMeChg][NMeD]-Piperidide; lactam N-11)	8.59	6.30 to 7.00
CC[C@H](C)[C@@H]1NC(=O)[C@H](CC(C)C)N(C)C(=O)C[C@@H](C(=O)N2CCCCC2)N(C)C(=O)[C@H](C(C)C)N(C)C(=O)C2(CCCC2)NC(=O)[C@@H]2CCCN2C(=O)[C@H](CCc2ccc(C(F)(F)F)c(Cl)c2)NC(=O)CN(C)C(=O)[C@H](Cc2ccc(C)cc2)N(C)C(=O)CN(C)C(=O)CN(C)C1=O [Compound 1594] ([NMeL]I[Sar][Sar][NMePhe(4-Me)][Sar][hPhe(3-Cl-4-CF3)]P[Ac5c][NMeV][NMeD]-Piperidide; lactam N-11)	8.49	6.30 to 7.00
CC[C@H](C)[C@@H]1NC(=O)[C@H](CC(C)C)N(C)C(=O)C[C@@H](C)N(C)C(=O)[C@H](C2CCC2)N(C)C(=O)C2(CCCC2)NC(=O)[C@@H]2CCCN2C(=O)[C@H](CCc2ccc(C(F)(F)F)c(Cl)c2)NC(=O)CN(C)C(=O)[C@H](CC2CCCCC2)N(C)C(=O)CN(C)C(=O)CN(C)C1=O [Compound 845] (cyclo([Ac5c][NMeGly(cBu)][NMedβ3hAla][NMeL]I[Sar][Sar][NMeCha][Sar][hPhe(3-Cl-4-CF3)]P))	8.09	7.00 to 7.30
CC[C@H](C)[C@@H]1NC(=O)[C@H](CC(C)C)N(C)C(=O)C[C@@H](C)NC(=O)[C@H](C(C)C)N(C)C(=O)C2(CCCC2)NC(=O)[C@@H]2CCCN2C(=O)[C@H](CCc2ccc(C(F)(F)F)c(Cl)c2)NC(=O)CN(C)C(=O)[C@H](Cc2ccc(Br)cc2)N(C)C(=O)CN(C)C(=O)CN(C)C1=O [Compound 1625] (cyclo([Ac5c][NMeV][d(β3hA)][NMeL]I[Sar][Sar][NMePhe(4-Br)][Sar][hPhe(3-Cl-4-CF3)]P))	8.14	6.30 to 7.00
CC[C@H](C)[C@@H]1NC(=O)[C@H](CC(C)C)N(C)C(=O)C[C@@H](C(=O)N(C)C)N(C)C(=O)[C@H]([C@@H](C)CC)N(C)C(=O)C2(CCCC2)NC(=O)[C@H](C)NC(=O)[C@H](CCc2ccc(C(F)(F)F)c(Cl)c2)NC(=O)CN(C)C(=O)[C@H](Cc2ccc(C)cc2)N(C)C(=O)[C@@H]2CCN2C(=O)[C@H](C)N(C)C1=O [Compound 957] ([NMeL]I[NMeA][Aze][NMePhe(4-Me)][Sar][hPhe(3-Cl-4-CF3)]A[Ac5c][NMeI][NMeD]-NMe2; lactam N-11)	9.36	6.30 to 7.00
